# Measurements from ChEMBL document CHEMBL1201862, “PubChem BioAssay data set” (2004).
# Activity calls are given as the source filed them.
# What was measured:
# [1] = target: T1, Carboxy-terminal domain RNA polymerase II polypeptide A small phosphatase 1 (Homo sapiens, UniProt Q9GZU7); assay: CTDSP1 inhibitors, concentration-response, biochemical, absorbance readout, ultra-high-throughput screen actives (AID 540297); assay type: functional
# T1 sequence (Q9GZU7 whole entry): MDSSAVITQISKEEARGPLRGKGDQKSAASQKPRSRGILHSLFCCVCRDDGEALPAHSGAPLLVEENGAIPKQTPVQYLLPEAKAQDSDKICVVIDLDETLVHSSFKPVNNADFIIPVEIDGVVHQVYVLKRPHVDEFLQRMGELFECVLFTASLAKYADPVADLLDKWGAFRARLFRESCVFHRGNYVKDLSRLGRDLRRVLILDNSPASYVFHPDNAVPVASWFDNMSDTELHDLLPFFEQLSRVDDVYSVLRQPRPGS
# [2] = target: T2, Long-chain-fatty-acid--AMP ligase FadD28 (Mycobacterium tuberculosis, UniProt P9WQ59); assay: Fluorescence polarization aasay to screen for inhibitors that compete for the binding of FadD28 to a bisubstrate Measured in Biochemical System Using Plate Reader - 2147-01_Inhibitor_Dose_CherryPick_Activity.; assay type: functional, Mycobacterium tuberculosis H37Rv
# T2 sequence (P9WQ59 whole entry): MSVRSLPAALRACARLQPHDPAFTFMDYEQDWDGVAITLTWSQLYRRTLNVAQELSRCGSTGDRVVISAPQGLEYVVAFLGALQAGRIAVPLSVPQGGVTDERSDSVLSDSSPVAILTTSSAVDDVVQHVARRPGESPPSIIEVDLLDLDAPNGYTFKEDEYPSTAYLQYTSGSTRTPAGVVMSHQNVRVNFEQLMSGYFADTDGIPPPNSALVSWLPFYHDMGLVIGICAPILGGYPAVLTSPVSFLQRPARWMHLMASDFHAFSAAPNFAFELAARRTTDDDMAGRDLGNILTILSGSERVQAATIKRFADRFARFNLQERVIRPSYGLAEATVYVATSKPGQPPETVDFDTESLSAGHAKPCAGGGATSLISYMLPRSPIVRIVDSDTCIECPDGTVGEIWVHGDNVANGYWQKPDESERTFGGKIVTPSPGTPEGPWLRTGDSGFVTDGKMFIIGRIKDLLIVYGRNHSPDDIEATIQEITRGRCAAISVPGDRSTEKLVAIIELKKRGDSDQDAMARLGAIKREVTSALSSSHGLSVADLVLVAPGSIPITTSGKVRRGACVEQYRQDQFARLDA
# [3] = target: Glyceraldehyde-3-phosphate dehydrogenase (Homo sapiens, UniProt P04406)
# [4] = HEK-293T cell viability reduction – luminescence, B-cell screen hits, cytotoxicity control for BCR NF-kB inhibitor project, dose response (AID 489021); assay type: functional, cell-based;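 note: HEK-293T cells carrying an NF-kB luciferase reporter; cells exposed to compound for about 14 hours before viability readout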
# [5] = target: Eukaryotic translation initiation factor 4E (Mus musculus, UniProt P63073); assay: blockers of eIF4G binding by eIF4E – biochemical, TR-FRET, dose response (AID 855); assay type: functional;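 note: potency for disrupting eIF4E binding to eIF4GI seen as loss of FRET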
# [6] = target: Cytochrome P450 3A4 (Homo sapiens, UniProt P08684);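 note: CYP3A4 tested as one member of a cytochrome P450 panel screen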
# [7] = target: T3, Short transient receptor potential channel 4 (Mus musculus, UniProt Q9QUQ5); assay: block of DAMGO-driven TRPC4 calcium entry – cell-based, HEK293 TRPC4/mu-opioid, Fluo-4 calcium, dose response (AID 434942); assay type: functional;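 note: potency of inhibitors blocking the TRPC4 calcium response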
# T3 sequence (Q9QUQ5 whole entry): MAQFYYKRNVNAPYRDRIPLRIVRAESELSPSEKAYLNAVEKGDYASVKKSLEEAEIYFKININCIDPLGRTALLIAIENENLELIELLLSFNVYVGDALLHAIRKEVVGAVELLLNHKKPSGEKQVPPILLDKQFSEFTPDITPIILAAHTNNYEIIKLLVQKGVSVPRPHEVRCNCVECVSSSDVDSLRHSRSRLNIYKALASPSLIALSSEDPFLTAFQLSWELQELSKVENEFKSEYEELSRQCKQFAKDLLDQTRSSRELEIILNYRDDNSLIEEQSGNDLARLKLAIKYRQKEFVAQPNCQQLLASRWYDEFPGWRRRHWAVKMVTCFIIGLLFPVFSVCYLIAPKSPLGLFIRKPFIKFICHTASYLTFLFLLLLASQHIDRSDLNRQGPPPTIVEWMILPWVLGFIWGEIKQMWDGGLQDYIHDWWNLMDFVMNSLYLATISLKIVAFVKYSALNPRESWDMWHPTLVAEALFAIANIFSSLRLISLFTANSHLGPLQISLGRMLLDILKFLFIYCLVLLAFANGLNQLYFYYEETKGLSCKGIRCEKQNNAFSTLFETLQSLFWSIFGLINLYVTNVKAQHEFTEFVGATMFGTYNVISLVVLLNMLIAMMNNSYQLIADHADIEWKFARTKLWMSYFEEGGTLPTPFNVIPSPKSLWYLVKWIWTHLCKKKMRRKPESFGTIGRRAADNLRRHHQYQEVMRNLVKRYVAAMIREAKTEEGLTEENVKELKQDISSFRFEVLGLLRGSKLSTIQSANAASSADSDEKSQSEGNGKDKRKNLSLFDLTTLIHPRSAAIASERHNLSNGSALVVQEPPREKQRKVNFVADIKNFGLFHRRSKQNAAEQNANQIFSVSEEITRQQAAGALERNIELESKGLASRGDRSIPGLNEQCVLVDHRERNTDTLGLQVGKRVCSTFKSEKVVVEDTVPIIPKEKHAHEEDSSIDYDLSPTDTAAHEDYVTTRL
# [8] = target: Nonstructural protein 1 (Influenza A virus, UniProt Q194T2); assay type: functional, Influenza A virus (A/California/07/2009(H1N1))
# [9] = test system: INS1; assay: INS-1E survival protection against cytokine death – cell-based, luminescence, retest, dose response (AID 449756); assay type: functional; details: Rattus norvegicus;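 note: cell death triggered by IL-1 beta plus TNF-alpha plus IFN-gamma mixture; protective hits raise ATP signal compared with cytokine alone wells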
# [10] = target: Heat shock protein HSP 90-alpha (Homo sapiens, UniProt P07900); assay type: functional, organism-based
# [11] = HEK-293T viability loss after treatment – luminescence, T-cell screen hits, cytotoxicity control for TCR NF-kB inhibitor project, dose response (AID 489026); assay type: functional, cell-based;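 note: cells exposed to compound about 14 hours before the viability readout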
# [12] = loss of viability in HepG2 cells – cell-based, CellTiter-Glo, cherry-picked, cytotoxicity control for Shn3 inhibitor project, dose response (AID 624134); assay type: functional
# [13] = target: T4, Corticotropin-releasing factor receptor 2/Corticotropin-releasing factor-binding protein (Homo sapiens, UniProt P24387+Q13324); assay: activators of CRF receptor 2 with binding protein – uHTS hits, confirmation (AID 602473); assay type: functional; details: read-out: EC50_Mean
# T4 sequence (Q13324 whole entry): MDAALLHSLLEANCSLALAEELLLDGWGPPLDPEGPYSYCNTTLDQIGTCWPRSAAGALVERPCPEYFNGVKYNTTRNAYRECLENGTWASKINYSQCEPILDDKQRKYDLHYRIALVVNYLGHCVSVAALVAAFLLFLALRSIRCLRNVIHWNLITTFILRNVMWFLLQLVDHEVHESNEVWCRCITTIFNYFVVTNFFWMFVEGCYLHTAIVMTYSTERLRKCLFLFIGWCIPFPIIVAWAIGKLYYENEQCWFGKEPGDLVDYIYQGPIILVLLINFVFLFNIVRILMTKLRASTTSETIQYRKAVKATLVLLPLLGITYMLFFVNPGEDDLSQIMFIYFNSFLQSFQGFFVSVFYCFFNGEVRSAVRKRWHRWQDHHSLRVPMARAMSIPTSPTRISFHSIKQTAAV
# T4 sequence (P24387 whole entry): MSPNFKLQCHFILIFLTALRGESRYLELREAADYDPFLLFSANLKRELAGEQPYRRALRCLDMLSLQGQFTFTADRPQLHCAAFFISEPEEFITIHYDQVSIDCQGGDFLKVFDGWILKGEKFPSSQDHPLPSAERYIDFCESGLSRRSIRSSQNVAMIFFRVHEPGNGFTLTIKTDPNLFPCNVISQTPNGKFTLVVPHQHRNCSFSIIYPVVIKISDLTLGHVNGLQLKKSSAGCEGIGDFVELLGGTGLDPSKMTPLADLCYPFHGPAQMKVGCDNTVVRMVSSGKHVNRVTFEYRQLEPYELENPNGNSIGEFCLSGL
# [14] = target: Dual specificity tyrosine-phosphorylation-regulated kinase 1A (Rattus norvegicus, UniProt Q63470); assay type: biochemical, Homo sapiens
# [15] = luciferase reporter signal suppression in cells – H4 neuroglioma cells, luminescence, dose response (AID 1990); assay type: functional, cell-based
# [16] = alpha-synuclein stem-loop luciferase translation blockers – H4 neuroglioma cells, luminescence, confirmation (AID 1988); assay type: functional, cell-based
# [17] = Luminescence Cell-Based Dose Response HTS to Identify Inhibitors of 5'UTR Stem-Loop Driven Prion Protein mRNA Translation in H4 Neuroglioblastoma Cells. [Related pubchem assays: 1827 (Project Summary), 1813 (Primary HTS)]; assay type: functional
# [18] = target: Prothrombin (Homo sapiens, UniProt P00734); assay: Thrombin 1536 HTS Dose Response Confirmation. [Related pubchem assays: 1046 (Thrombin 1536 HTS; hits were confirmed in this assay)]; assay type: functional
# [19] = target: T3, Short transient receptor potential channel 4; assay: calcium entry via TRPC4 opening agents – cell-based, HEK293 TRPC4/mu-opioid, Fluo-4 calcium, dose response (AID 434937); assay type: functional
# [20] = target: T5, Rac GTPase-activating protein 1 (Homo sapiens, UniProt Q9H0H5); assay: blockers of MgcRacGAP-driven Rac1 GTP hydrolysis – biochemical, ADP Hunter fluorescence, primary and confirmatory, confirmation (AID 624330); assay type: functional
# T5 sequence (Q9H0H5 whole entry): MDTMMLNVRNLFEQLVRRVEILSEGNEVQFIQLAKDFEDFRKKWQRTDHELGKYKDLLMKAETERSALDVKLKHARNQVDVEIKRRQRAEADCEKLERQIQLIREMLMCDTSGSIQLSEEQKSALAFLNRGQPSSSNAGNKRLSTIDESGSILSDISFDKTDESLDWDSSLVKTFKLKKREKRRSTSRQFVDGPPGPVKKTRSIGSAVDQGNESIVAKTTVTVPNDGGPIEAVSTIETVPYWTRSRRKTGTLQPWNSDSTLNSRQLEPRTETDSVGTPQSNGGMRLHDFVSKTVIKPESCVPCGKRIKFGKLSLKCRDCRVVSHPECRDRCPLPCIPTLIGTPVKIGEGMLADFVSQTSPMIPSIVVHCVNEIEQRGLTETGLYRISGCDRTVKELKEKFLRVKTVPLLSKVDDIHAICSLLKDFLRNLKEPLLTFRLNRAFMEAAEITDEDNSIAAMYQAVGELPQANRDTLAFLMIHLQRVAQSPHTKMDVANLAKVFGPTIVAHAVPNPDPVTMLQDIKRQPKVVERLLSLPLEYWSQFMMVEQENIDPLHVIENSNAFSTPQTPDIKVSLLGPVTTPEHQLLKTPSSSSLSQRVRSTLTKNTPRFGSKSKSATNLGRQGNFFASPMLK
# Chain of Nonstructural protein 1 (Q194T2 whole entry): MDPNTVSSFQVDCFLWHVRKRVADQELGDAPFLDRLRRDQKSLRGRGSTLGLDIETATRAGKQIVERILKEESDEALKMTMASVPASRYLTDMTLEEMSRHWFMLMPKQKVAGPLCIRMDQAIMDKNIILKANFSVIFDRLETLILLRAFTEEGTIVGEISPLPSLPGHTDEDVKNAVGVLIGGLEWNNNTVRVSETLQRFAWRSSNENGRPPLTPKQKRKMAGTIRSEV
# Chain of Glyceraldehyde-3-phosphate dehydrogenase (P04406 whole entry): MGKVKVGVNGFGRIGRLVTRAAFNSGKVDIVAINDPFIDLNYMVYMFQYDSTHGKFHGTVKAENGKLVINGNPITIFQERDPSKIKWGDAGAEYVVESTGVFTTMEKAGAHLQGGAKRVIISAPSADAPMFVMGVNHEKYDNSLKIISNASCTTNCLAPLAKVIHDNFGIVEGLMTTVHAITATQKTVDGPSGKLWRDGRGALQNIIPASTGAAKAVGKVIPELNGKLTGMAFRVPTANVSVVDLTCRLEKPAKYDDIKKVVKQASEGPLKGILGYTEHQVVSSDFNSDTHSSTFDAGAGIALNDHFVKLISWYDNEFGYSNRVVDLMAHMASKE
# Chain of Cytochrome P450 3A4 (P08684 whole entry): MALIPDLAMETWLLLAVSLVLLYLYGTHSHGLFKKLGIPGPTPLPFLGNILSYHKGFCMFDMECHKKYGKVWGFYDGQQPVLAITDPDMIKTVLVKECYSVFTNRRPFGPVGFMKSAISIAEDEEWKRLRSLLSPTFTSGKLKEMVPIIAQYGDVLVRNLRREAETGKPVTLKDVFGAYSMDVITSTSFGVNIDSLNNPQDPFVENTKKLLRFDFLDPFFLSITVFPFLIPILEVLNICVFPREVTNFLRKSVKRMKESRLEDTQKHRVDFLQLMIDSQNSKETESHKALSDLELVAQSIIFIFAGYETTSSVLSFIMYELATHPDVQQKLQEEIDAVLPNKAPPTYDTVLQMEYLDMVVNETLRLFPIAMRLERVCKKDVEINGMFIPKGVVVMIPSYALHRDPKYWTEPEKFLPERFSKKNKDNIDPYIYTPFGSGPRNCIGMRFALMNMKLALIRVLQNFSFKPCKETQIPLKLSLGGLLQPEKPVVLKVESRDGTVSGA
# Chain of Eukaryotic translation initiation factor 4E (P63073 whole entry): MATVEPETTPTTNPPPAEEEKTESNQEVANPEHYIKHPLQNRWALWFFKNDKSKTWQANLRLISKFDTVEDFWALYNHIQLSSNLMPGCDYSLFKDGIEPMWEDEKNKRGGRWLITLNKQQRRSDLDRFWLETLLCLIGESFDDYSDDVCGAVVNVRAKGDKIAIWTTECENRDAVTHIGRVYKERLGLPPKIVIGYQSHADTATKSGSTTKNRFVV
compound,measurement,setting,value
Cc1cccc(NC(=O)CN2C(=O)S/C(=C\c3cccn3-c3cccc(C(=O)O)c3)C2=O)c1,IC50,[1],6.83 µM (active)
same,AC50,[2],0.519 µM (active)
O=C1C2C3C=CC(C3)C2C(=O)N1c1n[nH]c(CCc2ccccc2)n1 (configuration not stated),IC50,[3],> 100 µM (not active)
O=C1C(Cl)=C(N2CCOCC2)C(=O)N1c1ccnc(Cl)c1,IC50,[3],> 50 µM (inconclusive)
C=CCOC(=O)COc1cc(C)cc2oc(=O)c3c(c12)CCC3,IC50,[4],> 80 µM (inactive)
Cc1c(OC(=O)c2ccc([N+](=O)[O-])cc2)c2c(c[n+]1C)COC(C)(C)OC2,IC50,[5],> 64 µM (inactive)
same,AC50,[6],7.08 µM (inconclusive)
same,IC50,[1],4.14 µM (active)
NNC(=O)COc1ccc(-c2nccc(-c3ccc(F)cc3)n2)cc1,IC50,[4],> 80 µM (inactive)
CCCc1noc2c1/C(=N\O)CC(CC(C)SCC)C2 (configuration not stated),EC50,[7],1.5 µM (active)
COc1ccc(Nc2c3c(nc4ccccc24)CCC3)cc1,EC50,[7],4.22 µM (active)
Cc1cc(N(C)C)ccc1N=Nc1ccc2ncccc2c1,IC50,[8],9.43 µM (active)
Cc1c(C)c2cccnc2c2ncccc12,AC50,[9],1.57 µM (active)
same,AC50,[10],3.99 µM (active)
same,IC50,[11],> 80 µM (inactive)
COc1ccc(Nc2nc(N)c3ccccc3n2)c(OC)c1,EC50,[7],4.22 µM (active)
CCOc1ccc(Br)cc1C1=CC(=O)C[C@H](c2ccc(OC)cc2)C1,AC50,[12],> 70 µM (inactive)
same,EC50,[13],> 53 µM (inactive)
same,IC50,[11],> 80 µM (inactive)
COc1ccc(/C=C2\SC(=O)NC2=S)cc1OC,AC50,[14],9.55 µM (active)
COc1ccc(/C=N/NC(=O)COc2ccccc2-c2ccccc2)cc1,EC50,[15],8.05 µM (active)
same,EC50,[16],0.166 µM (active)
same,EC50,[17],0.483 µM (active)
same,IC50,[11],> 80 µM (inactive)
CSCC[C@H](NS(=O)(=O)c1ccc(C(C)=O)cc1)c1nnc2ccccn12,IC50,[1],5.88 µM (active)
COc1ccc(CNc2nc(-c3cccnc3)nn2C(=O)c2ccco2)cc1,IC50,[18],1.19 µM (active)
CC(C)CN(CC(C)C)c1nc(N)c(C#N)c(CC#N)c1C#N,EC50,[7],5.96 µM (active)
CCn1cc(CN2CCC(n3nccc3NC(=O)CCCc3ccccc3)CC2)cn1,EC50,[7],1.19 µM (active)
same,EC50,[19],1.33 µM (active)
S=C(NCc1cccs1)NCC1CCCO1 (configuration not stated),IC50,[18],> 50 µM (not active)
CCOC(=O)CN1C(=O)S/C(=C\c2ccc(-c3ccc(C(=O)O)c(Cl)c3)o2)C1=O,IC50,[1],4.84 µM (active)
CCOc1ccc(C(=O)NCC(=O)OC(C)C(=O)NCc2ccco2)cc1OCC (configuration not stated),IC50,[18],> 50 µM (not active)
CCCC(=O)Nc1nc2ccc(S(=O)(=O)N3CCCCC3)cc2s1,IC50,[11],> 80 µM (inactive)
CN1CCN(c2cc(N3CCN(C(=O)c4ccco4)CC3)c3c4c(onc24)-c2ccccc2C3=O)CC1,IC50,[8],15.3 µM (active)
COc1cc(/C=C2\SC(=S)N(NC(=O)c3cccc(O)c3)C2=O)ccc1O,IC50,[20],54.8 µM (active)
same,AC50,[14],6.23 µM (active)
same,AC50,[2],32 µM (inactive)
